{"source": "paper PMC6271893", "about": "“In Vitro Antioxidant and Cytotoxic Activity of Some Synthetic Riparin-Derived Compounds” (Molecules, 2014)", "key": {"[1]": {"tested_on": "larynx carcinoma cell line HEP-2", "set-up": "method as in PMID 23569415", "conditions": "cited from earlier work"}, "[2]": {"tested_on": "HEP-2 (laryngeal carcinoma)", "test": "Cytotoxicity against tumor cell lines (MTT)", "format": "cell-based", "conditions": "Homo sapiens, 72 h, 95% confidence interval in brackets, read-out: IC50 values and confidence intervals, HEP-2", "procedure": "(§1) Cells were maintained at 37 °C with 5% CO2 in RPMI 1640 (Himedia^TM, Mumbai, India) or DMEM medium (Gibco^TM, Grand Island, NY, USA) supplemented with 2 mM glutamine, 100 U/mL penicillin, 100 μg/mL streptomycin. The antiproliferative activities of riparins were evaluated in the following human cancer cells lineage: HL-60 (pro-myelocytic leukemia), NCIH-292 (lung carcinoma), and HEP-2 (laryngeal carcinoma) obtained from the Rio de Janeiro Cell Bank (RJ-Brazil). For all experiments, 100 µL of tumor cells were plated in 96-well plates (6 × 10^4 cells/cm^2 for adherent cells or 9 × 10^4 cells/cm^2 for leukemia). Tested compounds (0.1–25 μg/mL) dissolved in 1% DMSO (100 µL) were added to each well and incubated for 72 h. Control groups received the same amount of DMSO. After 69 h of treatment, 25 μL of MTT (5 mg/mL) were added. Three hours later, the MTT formazan product was dissolved in 100 μL of DMSO, and absorbance was measured at 595 nm using a multiplate reader (Thermo Plate®, TP Reader, São Paulo, SP, Brasil).\n(§2) The obtained data were evaluated by one-way analysis of variance (ANOVA) followed by a Student Newman Keuls post hoc test. The data concerning release percentage of cytoplasmatic enzyme lactate dehydrogenase (LDH) were reported by mean ± standard deviation and evaluated by one-way analysis of variance (ANOVA) followed by a Tukey post hoc test. In all cases differences were considered significant if p < 0.05, the means and respective standard errors were analyzed in the Graph Pad Prism version 5.0 for Windows software (GraphPad Software Incorporated, San Diego, CA, USA)."}, "[3]": {"tested_on": "HL-60 (pro-myelocytic leukemia)", "test": "Cytotoxicity against tumor cell lines (MTT)", "format": "cell-based", "conditions": "Homo sapiens, 72 h, 95% confidence interval in brackets, read-out: IC50 values and confidence intervals, HL-60", "procedure": "as §1, §2"}, "[4]": {"tested_on": "NCIH-292 (lung carcinoma)", "test": "Cytotoxicity against tumor cell lines (MTT)", "format": "cell-based", "conditions": "Homo sapiens, NCI-H292, 72 h, 95% confidence interval in brackets, read-out: IC50 values and confidence intervals, NCIH-292", "procedure": "as §1, §2"}, "[5]": {"test": "Hydroxyl radical scavenging activity (2-deoxyribose degradation, Fenton reaction)", "procedure": "(§3) For the in vitro antioxidant tests the samples were emulsified in 0.05% Tween 80 dissolved in saline 0.9% (used as the vehicle) and tested at concentrations of 1, 5, 10, 25 and 100 µg/mL. The samples for the cytotoxicity tests were diluted in pure and sterile DMSO and tested at concentrations of 25 µg/mL.\nThe formation of OH radicals from Fenton reagents was quantified using the condensation product of the 2-deoxyribose oxidative degradation product, malonaldehyde, with 2-thiobarbituric acid (TBA). Briefly, typical reactions were started by the addition of Fe^2+ (FeSO4 6 mM final concentration) to solutions containing 5 mM 2-deoxyribose, 100 mM H2O2 and 20 mM phosphate buffer (pH 7.2). In order to determine the antioxidant activity of the riparins against the hydroxyl radical, individual tests were performed on each one of the six substances, in which different concentrations of the riparins were added to the system before Fe^2+ addition (Rip-A; Rip-B; Rip-C; Rip-D; Rip-E and Rip-F). Reactions were carried out for 15 min at room temperature and were quenched by the addition of phosphoric acid 4% (v/v), followed by TBA 1% (thiobarbituric acid, v/v in 50 μL NaOH). The solutions were boiled for 15 min to 95 °C and then cooled at room temperature. The absorbance was measured at 532 nm and the results were expressed as MDA equivalents formed by Fe^2+ and H2O2 [25]."}, "[6]": {"tested_on": "tumor cells lines (leukemia and lung and laryngeal carcinoma)", "test": "Cytotoxicity on tumor cell lines, summary statements over the lines (MTT)", "format": "cell-based", "conditions": "Homo sapiens", "procedure": "as §3, §1"}, "[7]": {"test": "Scavenging activity of nitric oxide (nitrite production induced by SNP, Griess reaction)", "procedure": "as §3\nNitric oxide was generated from spontaneous decomposition of sodium nitroprusside in 20 mM phosphate buffer (pH 7.4). Once generated, NO interacts with oxygen to produce nitrite ions, which are measured by the Griess reaction. The reaction mixture (1 mL) containing 10 mM sodium nitroprusside (SNP) in phosphate buffer and the riparins at various concentrations of 1, 5, 10, 25 and 100 µg/mL were incubated at 37 °C for 1 h. A 0.5 mL aliquot was taken and homogenized with 0.5 mL Griess reagent. The absorbance of chromophore was measured at 540 nm. Percent inhibition of generated nitric oxide was measured by comparing the absorbance values of negative controls (only 10 mM sodium nitroprusside and vehicle) to assay preparations. Results were expressed as percentage of nitrite formed by SNP alone."}, "[8]": {"tested_on": "murine peritoneal macrophages RAW 264.7", "test": "Cytotoxicity assay on RAW 264.7 (LDH release)", "format": "cell-based", "conditions": "25 µg/mL, RAW 264.7", "procedure": "Murine peritoneal macrophages of the cell line RAW 264.7 were obtained from the American Type Culture Collection (ATCC, Rockville, MD, USA), and cultured at 37 °C with CO2 at 5% in DMEM-F12 supplemented with 10% fetal bovine serum (FBS; Hyclone^TM, Logan, UT, USA) and gentamicin (50 μg/mL). RAW 264.7 cells (5 × 10^5 cells/mL) were cultured and incubated for 24 h with the riparins A, B, C, D, E and F at the final concentration of 25 µg/mL […]. The cytotoxicity assay was performed by LDH assay. The release of LDH (cytoplasmic lactate dehydrogenase enzyme) was determined using 50 μL of culture supernatant with 100 μL of LDH substrate plus and 5 μL ferric alum (5 mg/mL), at 37 °C for 3 min. Then, 100 μL of the NAD solution and phenazine methosulphate were added to the mixture, maintaining the temperature at 37 °C for 5 min (Labrax Commercial Kit, Clontech, Palo Alto, CA, USA). LDH is an oxidoreductase which catalyzes the interconversion of lactate and pyruvate and, for being a stable cytosolic enzyme, after damage to cell membrane it is released in the cellular environment and because of this LDH is an indirect indicator of cytotoxicity. LDH concentration was determined by colorimetry at 492 nm. The specific release of LDH was calculated as percentage of the controls (not treated cells as negative control and cells treated with 1%Triton X-100 as positive control).\nas §2"}, "[9]": {"test": "Antioxidant potential against the formation of TBARS (AAPH-induced lipid peroxidation of egg yolk homogenate)", "procedure": "as §3\nThe TBARS assay was employed to quantify lipid peroxidation and an adapted TBARS method was used to measure the antioxidant capacity of the riparins (Rip-A, -B, -C, -D, -E and -F) using egg yolk homogenate as lipid rich substrate. Egg yolk was homogenized (1% w/v) in 20 mM phosphate buffer (pH 7.4), 1 mL of homogenate was sonicated and then homogenized with 0.1 mL of the samples at concentrations of 1, 5, 10, 25 and 100 µg/mL. Lipid peroxidation was induced by the addition of 0.1 mL of 2,2'-azobis(2-methylpropionamidine) dihydrochloride solution (AAPH; 0.12 M). Control was evaluated with only the vehicle. Reactions were carried out for 15 minutes at 37 °C. After cooling, samples (0.5 mL) were centrifuged with 0.5 mL of trichloroacetic acid (15%) at 1,200 ×g for 10 min. An aliquot of 0.5 mL from supernatant was mixed with 0.5 mL TBA (0.67%) and heated at 95 °C for 30 min. After cooling, sample absorbance was measured using a spectrophotometer at 532 nm. The results were expressed as percentage of TBARS formed by AAPH alone (induced control)."}}, "note": "Marks after values point to notes of the source that are not given here.", "data": [{"smiles": "CC[C@H]1CC2CN3CCc4c([nH]c5ccc(OC)cc45)[C@](C(=O)OC)(C2)[C@H]13", "note": "(stereo in doubt) [voacangine]", "values": [{"measurement": "IC50 on HEP-2", "setting": "[1]", "value": 159.33, "unit": "µg/mL"}]}, {"smiles": "COc1ccc(CCNC(=O)c2ccccc2O)cc1OC", "note": "[Rip-D, 2-Hydroxy-N-[2-(3,4-methoxyphenyl)ethyl]benzamide]", "values": [{"measurement": "IC50", "setting": "[2]", "value": 7.3, "unit": "µg/mL"}, {"measurement": "IC50", "setting": "[3]", "value": 9, "unit": "µg/mL"}, {"measurement": "IC50", "setting": "[4]", "value": "> 25", "unit": "µg/mL"}, {"measurement": "2-Deoxyribose degradation (%)", "setting": "[5]; 1 μg/mL", "value": "93.5 ± 1.17 ^a %"}, {"measurement": "2-Deoxyribose degradation (%)", "setting": "[5]; 5 μg/mL", "value": "67.9 ± 1.74 ^a %"}, {"measurement": "2-Deoxyribose degradation (%)", "setting": "[5]; 10 μg/mL", "value": "56.9 ± 0.82 ^a %"}, {"measurement": "2-Deoxyribose degradation (%)", "setting": "[5]; 25 μg/mL", "value": "51.9 ± 1.27 ^a %"}, {"measurement": "2-Deoxyribose degradation (%)", "setting": "[5]; 100 μg/mL", "value": "47.3 ± 0.88 ^a %"}, {"measurement": "IC50 OH radical", "setting": "[5]; hydroxyl radical content", "value": 1.358, "unit": "µg/mL"}, {"measurement": "IC50", "setting": "[6]; leukemia and lung and laryngeal carcinoma, read-out: IC50 values on neoplastic cells (range over cell lines)", "value": "1.9 to 11.4", "unit": "µg/mL"}, {"measurement": "inhibition at 25 µg/mL", "setting": "[6]; tumor cells lines, cytotoxicity samples tested at 25 µg/mL, read-out: cell growth inhibition rates", "value": "> 70", "unit": "%"}, {"measurement": "Nitrite Production (% induced by SNP)", "setting": "[7]; 1 μg/mL", "value": "72.6 ± 1.81 ^a %"}, {"measurement": "Nitrite Production (% induced by SNP)", "setting": "[7]; 5 μg/mL", "value": "32.2 ± 1.45 ^a %"}, {"measurement": "Nitrite Production (% induced by SNP)", "setting": "[7]; 10 μg/mL", "value": "28.9 ± 1.74 ^a %"}, {"measurement": "Nitrite Production (% induced by SNP)", "setting": "[7]; 25 μg/mL", "value": "24.7 ± 1.77 ^a %"}, {"measurement": "Nitrite Production (% induced by SNP)", "setting": "[7]; 100 μg/mL", "value": "17.3 ± 2.38 ^a %"}, {"measurement": "IC50 Nitrite", "setting": "[7]; nitrite formation", "value": 1.270, "unit": "µg/mL"}, {"measurement": "melting point", "value": 96, "unit": "°C"}, {"measurement": "LDH % Release", "setting": "[8]", "value": 83.12, "unit": "%"}, {"measurement": "LDH % Release", "setting": "[8]; listed as riparin D", "value": "greater than 80%"}, {"measurement": "TBARS levels (% AAPH)", "setting": "[9]; 1 μg/mL", "value": "41.2 ± 0.96 ^a %"}, {"measurement": "TBARS levels (% AAPH)", "setting": "[9]; 5 μg/mL", "value": "39.4 ± 0.71 ^a %"}, {"measurement": "TBARS levels (% AAPH)", "setting": "[9]; 10 μg/mL", "value": "37.3 ± 0.68 ^a %"}, {"measurement": "TBARS levels (% AAPH)", "setting": "[9]; 25 μg/mL", "value": "34.4 ± 0.76 ^a %"}, {"measurement": "TBARS levels (% AAPH)", "setting": "[9]; 100 μg/mL", "value": "25.6 ± 0.66 ^a %"}, {"measurement": "IC50 TBARS", "setting": "[9]; TBARS production", "value": 0.9958, "unit": "µg/mL"}]}]}
